The source of these data is publication PMC5884906, “Single Administration of HBK-15—a Triple 5-HT1A, 5-HT7, and 5-HT3 Receptor Antagonist—Reverses Depressive-Like Behaviors in Mouse Model of Depression Induced by Corticosterone” (Molecular Neurobiology, 2017).

Molecules are shown by their SMILES. pIC50: −log10 of the molar value. Where two headings read alike, the source gives them in different places.

One series deals with 5-HT7 receptor. Details: method as in PMID 26554929. Particulars: previous experiments; read-out: 5-HT7 receptor antagonist IC50; cited from earlier work.
For series [1] the following is noted: cited from earlier work.
Series [2] in a line: pharmacokinetic study in plasma after i.v. and i.p. administration. The series is classed as in vivo, mice. The note with it: HBK-14 2.5 mg/kg, HBK-15 1.25 mg/kg; for AUC(0-inf) / C0: mouse plasma; for C0: read-out: C 0 (initial concentration); for Cmax / MRT / half-life / Tmax / bioavailability / clearance / Vd: CD-1, mouse, plasma; for Cmax: read-out: C max (maximum plasma concentration); for MRT: read-out: MRT (mean residence time) (converted); for half-life: read-out: t 0.5 (terminal half-life); for Tmax: read-out: t max (time to reach the maximum plasma concentration) (converted); for bioavailability: after i.p. administration, AUCi.p./AUCi.v., read-out: F (absolute bioavailability); for clearance: read-out: Cl (systemic clearance); for Vd: read-out: V d (volume of distribution at steady state). The method, then: For pharmacokinetic study, HBK-14 and HBK-15 dissolved in saline were administered by an intravenous (i.v.) and intraperitoneal (i.p.) administration at a dose of 2.5 and 1.25 mg/kg, respectively. Blood samples were collected at 0 min (predose), 5 min, 15 min, 30 min, 60 min, 120 min, and 240 min after compounds administration. The blood and brain samples were collected under general anesthesia induced by i.p. injections of 50 mg/kg ketamine plus 8 mg/kg xylazine. Blood samples were collected into heparinized tubes. The samples were immediately centrifuged at 3500 rpm for 10 min, and plasma was collected. The brain and plasma samples were immediately frozen at −80 °C for further analysis.
Pharmacokinetic parameters were calculated by a non-compartmental approach from the average concentration values, using Phoenix WinNonlin software (Certara, Princeton, NJ 08540, USA). First-order elimination rate constant (λ z) was calculated by linear regression of time vs log concentration. Next, the area under the mean serum and brain concentration vs time curve extrapolated to infinity (AUC0→∞) was estimated using the log-linear trapezoidal rule (Eq. 1), where C n is the concentration of last sampling of each compound.1 AUC0→∞=∑i=1nCi+Ci+1/2⋅ti+1−ti+Cn/λz
Area under the first moment curve (AUMC0→∞) was estimated by calculation of the total area under the first moment curve and extrapolated area using the Eq. 2, where t n is the time of last sampling.2 AUMC0→∞=∑i=1nti⋅Ci+ti+1⋅Ci+1/2⋅ti+1−ti+tn⋅Cn/λz+Cn/λz2
Mean residence time (MRT) was calculated as3 MRT=AUMC0→∞/AUC0→∞
Total clearance (ClT) was calculated as4 ClT=Div/AUC0→∞
Volume of distribution at steady state (Vss) was calculated as5 Vss=Div⋅AUMC0→∞/AUC0→∞^2
The quantification of studied compounds in plasma and brain samples was accomplished using UFLC Nexera system (Shimadzu, Kyoto, Japan) coupled to the triple quadrupole mass spectrometer QTrap 5500 (Sciex, Framingham, MA, USA) equipped with Turbo V™ ion source. After preparation, the samples were injected (5 μL) onto Acquity UPLC BEH C18 (3.0 × 100 mm, 1.7 μm, Waters, Milford, MA, USA) analytical column. The mobile phases that consisted of ACN with 0.1% FA (A) and water with 0.1% FA (B) were delivered in isocratic elution mode (40% A, 60% B) at the flow rate of 550 μL/min. The total time of analysis was 8 min including 2 min of column equilibration.
Electrospray ionization process was performed in positive polarization, and the data acquisition was carried out in multiple reaction monitoring mode (MRM) for all analytes and their internal standard (HBK-11 [37]). The ion spray source settings were as follows: spray voltage 4.5 kV, heater temperature 450 °C, curtain gas 25 psi, source gas 1 40 psi, source gas 2 40 psi.
An amount of 50 μL of sample (plasma or brain homogenate) was transferred into the clean Eppendorf tube and spiked with 5 μL of internal standard solution (IS, 1 μg/mL) obtaining the final concentration of 100 ng/mL. After 5 min of mixing (1500 rpm), proteins were precipitated using 150 μL ACN. After 10 min of samples shaking (1500 rpm), the incubation step was performed (10 min, 4 °C). Next, samples were centrifuged (10,000 rpm, 10 min, 4 °C) and the supernatant was transferred into chromatographic vial for LC/MS/MS analysis.

The conditions of series [3]: cited from earlier work; for effect on blood pressure after chronic treatment: antidepressant- and anxiolytic-like doses.
In series [4] the test system is corticosterone-treated mice. The series can be described thus: forced swim test, single administration, corticosterone model. The format is in vivo. The method, then:
Mice were injected with corticosterone (s.c., 20 mg/kg) at random times during the light phase for consecutive 21 days (Fig. 1c). The dose and route of administration of corticosterone were based on studies performed by Zhao and colleagues. After the end of the procedure, next day 30 min before the test, corticosterone-treated mice were given (i.p.) saline, HBK-15 (1.25 mg/kg), fluoxetine (10 mg/kg), or ketamine (1 mg/kg) (Fig. 1c). Control mice received (i.p.) saline. The experimental groups consisted of eight randomly selected animals. We chose the dose of HBK-15 that was active in the chronic experiments (i.e., 1.25 mg/kg). The dose of ketamine was based on the studies performed by Pazini and colleagues. Animals were tested in the forced swim test and spontaneous locomotor activity test. After behavioral testing, mice were scarified and their hippocampi collected for biochemical analysis.
Forced swim test was performed according to the method described by Porsolt and colleagues and previously described. Mice were placed individually for 6 min in glass cylinders (height 25 cm, diameter 10 cm) containing […] (23–25 °C). The total time of immobility was recorded during the final 4 min of the test. The experiments were recorded and scored using aLab.io software by a trained observer blind to the treatments.

What is called pIC50 is the negative decadic logarithm of the IC50, by convention in mol/L. As a reminder, the AUC(0-inf) is the area under the concentration-time curve extrapolated to infinity. Low values mean less exposure, high ones more exposure. One may read the MRT as a mean duration of stay, worked out from the concentration-time curve. For orientation: half-life means the time needed for the level to fall by half in the phase considered. Usually bioavailability stands for the share of a dose that reaches the circulation, judged against a reference dose that is usually intravenous. Take `COc1ccccc1N1CCN(CCOCCOc2c(C)cccc2C)CC1.Cl` [HBK-14, 1-[(2,6-Dimethylphenoxy)ethoxyethyl]-4-(2-methoxyphenyl)piperazine hydrochloride]: the pIC50 at 5-HT7 receptor was 7.11. In addition, the cholinolytic activity entry in series [1] is on record as “negligible”. The same compound showed a total exposure AUC(0-inf) in series [2] (CD-1, ip, i.p.) of 560 ng·h/mL. Further, in series [2] (CD-1, iv, i.v.), the total exposure AUC(0-inf) was 1720 ng·h/mL and the C0 stood at 410 ng/mL. Moreover, in series [2] (ip), the Cmax amounted to 269 ng/mL, the mean residence time (MRT) is 0.805 h, the half-life was determined as 0.633 h and the Tmax is 5 min. Besides, in series [2] (ip), the bioavailability turned out to be 15%. Further, in series [2] (iv), the clearance was 24.2 mL/min/kg, the MRT was 7.57 h, the Vd was 11.2 L/kg and the half-life was 5.38 h. The “t 0.5 (terminal half-life)” value in series [2] (i.p.) came out at 0.637 h. Moreover, the “t 0.5 (terminal half-life)” value in series [2] (i.v.) worked out at 5.378 h. The “effect on blood pressure after chronic treatment” value in series [3] is on record as “neither HBK-14 nor HBK-15 lowered blood pressure”.
In the case of `COc1ccccc1N1CCN(CCOCCOc2c(C)cccc2Cl)CC1.Cl` [HBK-15, 1-[(2-chloro-6-methylphenoxy)ethoxyethyl]-4-(2-methoxyphenyl)piperazine hydrochloride], the pIC50 on 5-HT7 receptor is 6.66. Further, the “effect on corticosterone-induced increase in immobility” value in series [4] (single 1.25 mg/kg i.p., 30 min before the test) is recorded as “reversed an increase in immobility”. Further, the cholinolytic activity result in series [1] is on record as “negligible”. This compound also showed a total exposure AUC(0-inf) in series [2] (CD-1, ip, i.p.) of 261 ng·h/mL. In series [2] (CD-1, iv, i.v.), the AUC(0-inf) was 484 ng·h/mL and the C0 was 602 ng/mL. Moreover, in series [2] (ip), the Cmax was found to be 359 ng/mL, the mean residence time (MRT) is 1.81 h, the half-life worked out at 1.4 h and the Tmax was 5 min. Also, in series [2] (ip), the bioavailability is 54%. Moreover, in series [2] (iv), the clearance was 40.2 mL/min/kg, the MRT is 1.5 h, the Vd was 3.5 L/kg and the half-life came out at 1.18 h. Further, in series [2] (i.p.), the “t 0.5 (terminal half-life)” value was found to be 1.39 h. In addition, the “t 0.5 (terminal half-life)” value in series [2] (i.v.) is 1.18 h. In addition, in series [3], the “effect on blood pressure after chronic treatment” value was “neither HBK-14 nor HBK-15 lowered blood pressure” and the “hypotensive activity after single administration” value is on record as “did not exhibit hypotensive activity”.
Consider `C[C@]12C[C@H](O)[C@H]3[C@@H](CCC4=CC(=O)CC[C@@]43C)[C@@H]1CC[C@@H]2C(=O)CO` [corticosterone], for which the “increase in immobility vs control” value in series [4] (acute experiment, corticosterone 20 mg/kg s.c. 21 days + saline) stood at 20%.
